Source: patent US10138469B2, “Synthetic peptide and use thereof” (Toagosei Co., Ltd., priority 2014, dated 2018)

Legend:
CCD1079SK cells [1] = test: Production of SIRIUS cells: cluster formation and cell morphology of fibroblasts cultured with peptide (phase-contrast microscopy); format: cell-based, human; conditions: for cell morphology in the culture: days 1 to 6
Description: SIRIUS cells were produced using the sample 1 obtained in Working Example 1. CCD1079SK cells (ATCC (registered trademark) CRL-2097), which are a fibroblast cell culture line derived from human skin tissue, were used as the sample cells. The details of the tests are as follows.
The CCD1079SK cells, which had been stored frozen, were inoculated to six culture dishes with a diameter of 60 mm (60 mm dishes) to provide a cell density of 3×10^5 cells/well. Specifically, the thawed CCD1079SK cells were first suspended in ordinary Dulbecco's modified Eagle's medium (DMEM medium) to produce a cell suspension having a cell density of 1.5×10^5 cells/mL and 2 mL of this cell suspension was introduced into the 60 mm dish. This DMEM medium contained 10% FBS, 100 units/mL of penicillin, and 100 μg/mL of streptomycin in ordinary DMEM (Wako Pure Chemical Industries, Ltd., Cat. No. 043-30085).
The CCD1079SK cells inoculated into the 60 mm dish were precultured for several hours (approximately 6 hours) in an incubator under conditions of 5% CO2 and 37° C.
After the preculture for several hours, the CCD1079SK cells were subjected to a main culture at one of the culture conditions indicated for examples 1 to 6 in Table 1. The specific culture conditions are given in the following. […]
The culture conditions according to example 5 are as follows: the stock solution of sample 1 is added, in an amount that provides a peptide concentration in the medium of 20 μM, to the DMEM medium (in the 60 mm dish) on which the CCD1079SK cells are being cultured, and culture is carried out under a temperature condition of 13° C. […]
Other than the culture temperature and the presence/absence of peptide addition, the same culture conditions were used in all of examples 1 to 6. Thus, in all of examples 1 to 6, culture was carried out in a 5% CO2 atmosphere using a DMEM medium with the same composition (same as that used in the preculture). In addition, in all of examples 1 to 6, culture exchange and peptide addition (addition of PBS (−) in the peptide-free groups) were carried out every two days after the start of the main culture.
Observation of the cell morphology using a phase-contrast microscope was carried out in each example on the 1st, 2nd, 3rd, 4th, 5th, 6th, 7th, 9th, 13th, 21st, 27th, and 34th days after the start of the main culture (cell culture in the presence of peptide). Among the images in FIG. 2, the micrographs given for example 3 are micrographs (images) showing cell aggregates (clusters) that were rarely identified when tests were independently repeated a plurality of times using the same conditions as in example 3.

CCD1079SK cells [2] = test: Evaluation of the state of undifferentiation of SIRIUS cells by cytoimmunostaining of undifferentiated marker genes; format: cell-based, human; conditions: sample 1 20 μM, 30° C., 3 days; fluorescent immunostaining
Protocol: The state of undifferentiation of the SIRIUS cells (cells forming clusters) produced using the sample 1 obtained in example 1 was evaluated by cytoimmunostaining (fluorescent immunostaining) of the state of expression of undifferentiated marker genes (endogenous Oct3/4, Nanog, Sox2, TRA1-81, SSEA-3, and ALP), i.e., the state of expression of protein that is a gene product of these genes (this protein is also referred to as “undifferentiated marker protein” below). The details of the evaluation test are as follows.
The SIRIUS cells according to this working example were produced by culture under the same conditions as the culture conditions given in example 1 of Working Example 2 with the following exceptions: a cell culture chamber having 1 well per slide (culture area of 19 mm×44 mm) (also referred to as a slide chamber) was used as the culture chamber, 1.5×10^5 cells/well was used for the number of cells per well; and 1 mL was used for the amount of medium per well. The status of differentiation of the SIRIUS cells was evaluated by cytoimmunostaining as follows on the 3rd day after the start of the main culture (culture in the presence of peptide).
Fixing, a permeabilization treatment, and a blocking treatment were first carried out on the cells in each test group. Specifically, the medium was removed from the culture chamber (slide chamber) in each test group once the culture for 3 days in the presence of peptide had been completed and the cells in each slide chamber were washed with cold PBS. PBS containing 4 volume % paraformaldehyde (4% paraformaldehyde solution) was then added to the slide chamber and the cells were fixed by standing for 15 minutes on ice. After the prescribed time had elapsed, the 4% paraformaldehyde solution was removed and the cells in the slide chamber were washed with cold PBS.
PBS containing 0.25 volume % Triton (registered trademark) X-100 (0.25% Triton (registered trademark) X-100 solution) was then added to each slide chamber and a permeabilization treatment was carried out on the cell membrane by standing for 15 minutes on ice. After the prescribed time had elapsed, the 0.25% Triton (registered trademark) X-100 solution was removed and the cells in the slide chamber were washed with cold PBS.
PBS containing 1% BSA (1% BSA-containing PBS) was added to each slide chamber and a blocking treatment was carried out for 1 hour at room temperature. After the prescribed time had elapsed, the 1% BSA-containing PBS was removed and the cells in the slide chamber were washed with cold PBS.
The primary antibodies (primary antibody dilution)—obtained by the dilution at the prescribed ratio (dilution ratio shown in Table 2) with 0.1% BSA/PBS of primary antibody that recognized the particular undifferentiated marker protein—were respectively added to the slide chambers and standing was carried out overnight (approximately 16 to 18 hours) at 4° C. After the prescribed time had elapsed, the primary antibody dilution was removed and washing with cold PBS was performed.
Table 2 gives the undifferentiation markers used to evaluate the status of expression in this working example, the details for the primary antibody (product name, product number, immunized animal, antibody class) used to recognize the particular undifferentiated marker protein, and the dilution ratio for the primary antibody. Of the primary antibodies given in Table 2, the anti-Oct3/4 antibody was from Santa Cruz Biotechnology, Inc. and the anti-Nanog antibody, anti-Sox2 antibody, anti-TRA1-81 antibody, anti-SSEA-3 antibody, and anti-ALP antibody were from Abcam plc.
Secondary antibody (secondary antibody dilution)—obtained by the 1000× dilution with 0.1% BSA/PBS of a secondary antibody that detected the particular primary antibody—was added to the slide chamber and standing was carried out in the dark for 2 hours at room temperature. After the prescribed time had elapsed, the secondary antibody dilution was removed and washing with cold PBS was performed. […]

[3] = example 2: sample 1 20 μM, 37° C.

## CKSKSRRSC [sample 1]
CCD1079SK cells [1]; example 1: sample 1 20 μM, 30° C., 60 mm dish
  time to formation of aggregates (clusters) of aggregated cells after the start of the main culture: ≤ 3 days
CCD1079SK cells [1]; example 1 conditions: 20 μM, 30° C., 26 times in 27 tests
  probability that at least 1 cluster was formed in the 60 mm dish within the 3rd day after the start of culture: at least 95%
CCD1079SK cells [1]; example 1 conditions: 20 μM, 30° C., within the 3rd day
  number (frequency) of clusters formed per one 60 mm dish, average: 3
CCD1079SK cells [1]; [3]
  formation of cell aggregates (clusters) within 3 days after the start of the main culture: did not form, or their formation frequency was very low
  persistence of the rarely observed clusters: disappeared by the 34th day
CCD1079SK cells [1]; example 5: sample 1 20 μM, 13° C.
  cell morphology in the culture: very close to a dead cell morphology
CCD1079SK cells [1]; example 6: sample 1 20 μM, 22° C.
  cell morphology in the culture: very close to a dead cell morphology
CCD1079SK cells [2]
  expression of undifferentiated marker gene ALP by cells constituting the clusters: strongly expressed
  expression of undifferentiated marker gene Nanog by cells constituting the clusters: strongly expressed
  expression of undifferentiated marker gene Oct3/4 by cells constituting the clusters: strongly expressed
  expression of undifferentiated marker gene SSEA-3 by cells constituting the clusters: strongly expressed
  expression of undifferentiated marker gene Sox2 by cells constituting the clusters: strongly expressed
  expression of undifferentiated marker gene TRA1-81 by cells constituting the clusters: strongly expressed
